# Data from patent publication US9637473B2, “Acrylamide derivatives as antimalarial agents” (priority 2013, dated 2017).
# System: P. Falciparum NF54
# Test: Plasmodium falciparum in vitro assay ([3H]-hypoxanthine incorporation)
# Type: cell-based
# Conditions: Plasmodium falciparum, Erythrocyte, P. Falciparum NF54, erythrocytic stages in human red blood cells, 50% human serum
# Experimental: In Vitro Antimalarial Activity: Plasmodium falciparum In Vitro Assay: In vitro activity against erythrocytic stages of P. Falciparum in human red blood cells is determined using a [^3H]-hypoxanthine incorporation assay. One strain sensitive to all drugs (P. […] After 48 hours, [^3H]-hypoxanthine (0.5 μCi) is added to each well of a plate. The plates are incubated for a further 24 hours under the same conditions then harvested with a Betaplate cell harvester (Wallac) and washed with distilled water. The dried filters are inserted into a plastic foil with 10 mL of scintillation fluid and counted in a Betaplate liquid scintillation counter. IC50 values are calculated from sigmoidal inhibition curves using Microsoft Excel.
row,IC50,Structure (SMILES)
1,39 nM,"Cc1cc(Nc2ccc(CN(C(=O)/C=C/c3ccc(C(F)(F)F)cc3)C3CCN(CC4CC4)CC3)cc2)ccn1 [Example 31, (E)-N-(1-Cyclopropylmethyl-piperidin-4-yl)-N-[4-(2-methyl-pyridin-4-ylamino)-benzyl]-3-(4-trifluoromethyl-phenyl)-acrylamide]"
2,89 nM,"Cc1cc(Nc2ccc(CN(C(=O)/C=C/c3ccc(C(F)(F)F)cc3)C3CCN(Cc4nc(C)oc4C)CC3)cc2)ccn1 [Example 32, (E)-N-[1-(2,5-Dimethyl-oxazol-4-ylmethyl)-piperidin-4-yl]-N-[4-(2-methyl-pyridin-4-ylamino)-benzyl]-3-(4-trifluoromethyl-phenyl)-acrylamide]"
3,42 nM,"CCCN1CCC(N(Cc2ccc(Nc3ccnc(C)c3)cc2)C(=O)/C=C/c2ccc(C(F)(F)F)cc2)CC1 [Example 33, (E)-N-[4-(2-Methyl-pyridin-4-ylamino)-benzyl]-N-(1-propyl-piperidin-4-yl)-3-(4-trifluoromethyl-phenyl)-acrylamide]"
4,242 nM,"Cc1cc(Nc2ccc(CN(C(=O)/C=C/c3ccc(C(F)(F)F)cc3)C3CCN(Cc4cc(C)on4)CC3)cc2)ccn1 [Example 34, (E)-N-[1-(5-Methyl-isoxazol-3-ylmethyl)-piperidin-4-yl]-N-[4-(2-methyl-pyridin-4-ylamino)-benzyl]-3-(4-trifluoromethyl-phenyl)-acrylamide]"
5,243 nM,"Cc1cc(Nc2ccc(CN(C(=O)/C=C/c3ccc(C(F)(F)F)cc3)C3CCN(Cc4scnc4C)CC3)cc2)ccn1 [Example 35, (E)-N-[4-(2-Methyl-pyridin-4-ylamino)-benzyl]-N-[1-(4-methyl-thiazol-5-ylmethyl)-piperidin-4-yl]-3-(4-trifluoromethyl-phenyl)-acrylamide]"
6,143 nM,"Cc1cc(Nc2ccc(CN(C(=O)/C=C/c3ccc(C(F)(F)F)cc3)C3CCN(Cc4coc(C)n4)CC3)cc2)ccn1 [Example 36, (E)-N-[1-(2-Methyl-oxazol-4-ylmethyl)-piperidin-4-yl]-N-[4-(2-methyl-pyridin-4-ylamino)-benzyl]-3-(4-trifluoromethyl-phenyl)-acrylamide]"
7,51 nM,"Cc1cc(Nc2ccc(CN(C(=O)/C=C/c3ccc(C(F)(F)F)cc3)C3CCN(Cc4ccccc4)CC3)cc2)ccn1 [Example 37, (E)-N-(1-Benzyl-piperidin-4-yl)-N-[4-(2-methyl-pyridin-4-ylamino)-benzyl]-3-(4-trifluoromethyl-phenyl)-acrylamide]"
8,100 nM,"Cc1cc(Nc2ccc(CN(C(=O)/C=C/c3ccc(C(F)(F)F)cc3)C3CCN(Cc4cnc5ccccn45)CC3)cc2)ccn1 [Example 38, (E)-N-(1-Imidazo[1,2-a]pyridin-3-ylmethyl-piperidin-4-yl)-N-[4-(2-methyl-pyridin-4-ylamino)-benzyl]-3-(4-trifluoromethyl-phenyl)-acrylamide]"
9,155 nM,"Cc1cc(Nc2ccc(CN(C(=O)/C=C/c3ccc(C(F)(F)F)cc3)C3CCN(CCC(F)(F)F)CC3)cc2)ccn1 [Example 39, (E)-N-[4-(2-Methyl-pyridin-4-ylamino)-benzyl]-3-(4-trifluoromethyl-phenyl)-N-[1-(3,3,3-trifluoro-propyl)-piperidin-4-yl]-acrylamide]"
10,207 nM,"Cc1cc(Nc2ccc(CN(C(=O)/C=C/c3ccc(C(F)(F)F)cc3)C3CCN(Cc4nccn4C)CC3)cc2)ccn1 [Example 41, (E)-N-[1-(1-Methyl-1H-imidazol-2-ylmethyl)-piperidin-4-yl]-N-[4-(2-methyl-pyridin-4-ylamino)-benzyl]-3-(4-trifluoromethyl-phenyl)-acrylamide]"
11,343 nM,"Cc1cc(Nc2ccc(CN(C(=O)/C=C/c3ccc(C(F)(F)F)cc3)C3CCN(Cc4nc(C)cs4)CC3)cc2)ccn1 [Example 42, (E)-N-[4-(2-Methyl-pyridin-4-ylamino)-benzyl]-N-[1-(4-methyl-thiazol-2-ylmethyl)-piperidin-4-yl]-3-(4-trifluoromethyl-phenyl)-acrylamide]"
12,84 nM,"Cc1cc(Nc2ccc(CN(C(=O)/C=C/c3ccc(C(F)(F)F)cc3)C3CCN(Cc4cc(C)nn4C)CC3)cc2)ccn1 [Example 43, (E)-N-[1-(2,5-Dimethyl-2H-pyrazol-3-ylmethyl)-piperidin-4-yl]-N-[4-(2-methyl-pyridin-4-ylamino)-benzyl]-3-(4-trifluoromethyl-phenyl)-acrylamide]"
13,64 nM,"Cc1cc(Nc2ccc(CN(C(=O)/C=C/c3ccc(C(F)(F)F)cc3)C3CCN(Cc4c(C)noc4C)CC3)cc2)ccn1 [Example 44, (E)-N-[1-(3,5-Dimethyl-isoxazol-4-ylmethyl)-piperidin-4-yl]-N-[4-(2-methyl-pyridin-4-ylamino)-benzyl]-3-(4-trifluoromethyl-phenyl)-acrylamide]"
14,168 nM,"Cc1cc(Nc2ccc(CN(C(=O)/C=C/c3ccc(C(F)(F)F)cc3)C3CCN(Cc4ncn5ccccc45)CC3)cc2)ccn1 [Example 45, (E)-N-(1-Imidazo[1,5-a]pyridin-1-ylmethyl-piperidin-4-yl)-N-[4-(2-methyl-pyridin-4-ylamino)-benzyl]-3-(4-trifluoromethyl-phenyl)-acrylamide]"
15,165 nM,"Cc1cc(Nc2ccc(CN(C(=O)/C=C/c3ccc(C(F)(F)F)cc3)C3CCN(Cc4ncc5ccccn45)CC3)cc2)ccn1 [Example 46, (E)-N-(1-Imidazo[1,5-a]pyridin-3-ylmethyl-piperidin-4-yl)-N-[4-(2-methyl-pyridin-4-ylamino)-benzyl]-3-(4-trifluoromethyl-phenyl)-acrylamide]"
16,345 nM,"Cc1cc(Nc2ccc(CN(C(=O)/C=C/c3ccc(C(F)(F)F)cc3)C3CCN(Cc4ncccn4)CC3)cc2)ccn1 [Example 47, (E)-N-[4-(2-Methyl-pyridin-4-ylamino)-benzyl]-N-(1-pyrimidin-2-ylmethyl-piperidin-4-yl)-3-(4-trifluoromethyl-phenyl)-acrylamide]"
17,101 nM,"Cc1cc(Nc2ccc(CN(C(=O)/C=C/c3ccc(C(F)(F)F)cc3)C3CCN(Cc4cccnc4)CC3)cc2)ccn1 [Example 48, (E)-N-[4-(2-Methyl-pyridin-4-ylamino)-benzyl]-N-(1-pyridin-3-ylmethyl-piperidin-4-yl)-3-(4-trifluoromethyl-phenyl)-acrylamide]"
18,280 nM,"Cc1cc(Nc2ccc(CN(C(=O)/C=C/c3ccc(C(F)(F)F)cc3)C3CCN(Cc4cncnc4)CC3)cc2)ccn1 [Example 49, (E)-N-[4-(2-Methyl-pyridin-4-ylamino)-benzyl]-N-(1-pyrimidin-5-ylmethyl-piperidin-4-yl)-3-(4-trifluoromethyl-phenyl)-acrylamide]"
19,91 nM,"Cc1cc(Nc2ccc(CN(C(=O)/C=C/c3ccc(C(F)(F)F)cc3)C3CCN(Cc4cnn(C)c4)CC3)cc2)ccn1 [Example 50, (E)-N-[1-(1-Methyl-1H-pyrazol-4-ylmethyl)-piperidin-4-yl]-N-[4-(2-methyl-pyridin-4-ylamino)-benzyl]-3-(4-trifluoromethyl-phenyl)-acrylamide]"

row,Structure (SMILES),IC50
1,"Cc1cc(Nc2ccc(CN(C(=O)/C=C/c3ccc(C(F)(F)F)cc3)C3CCN(Cc4nccs4)CC3)cc2)ccn1 [Example 40, (E)-N-[4-(2-Methyl-pyridin-4-ylamino)-benzyl]-N-(1-thiazol-2-ylmethyl-piperidin-4-yl)-3-(4-trifluoromethyl-phenyl)-acrylamide]",341 nM
